The term solubility denotes the dissolved amount per volume that the medium holds. Read a high solubility as a readily soluble substance.

Data on one compound can be found in paper PMC12143348, “Rapid and reversible fluorescent probe enables repeated snapshot imaging of AMPA receptors during synaptic plasticity” (Science Advances, 2025).

One series concerns the target T1, GluA2flip(Q) (Mus musculus, UniProt P23819, DEL765-802).
T1 construct: expressed in transfected cells; host or cells: HEK293T
In words: Concentration-dependent binding of fluorophore-ligand conjugates, confocal live imaging of HEK293T cells expressing GluA2.

A further series concerns native AMPARs. In words: Concentration-dependent binding of PFQX1(AF488) to AMPARs in primary cultured hippocampal neurons. On the set-up: species or system mouse. The settings on record: for Kd: n = 3. The protocol: We modified the Banker’s culture method of hippocampal neurons ([59]). Glass-bottom dishes (14 mm φ, Matsunami) were coated with poly-D-lysine (Sigma-Aldrich) and washed three times with sterile dH2O. Hippocampi from 16-day-old ICR mouse embryos were aseptically dissected and digested with 0.25% (w/v) trypsin (Nacalai Tesque) for 20 min at 37°C. The cells were resuspended in Neurobasal Plus medium supplemented with 10% FBS, 1 mM GlutaMAX I (Invitrogen), penicillin (100 U/ml), and streptomycin (100 μg/ml) and filtered by Cell Strainer (100 μm, Falcon) followed by centrifugation at 1000 rpm for 5 min. The cells were resuspended in Neurobasal Plus medium supplemented with 2% of B-27 Plus Supplement, 1 mM GlutaMAX I (Invitrogen), penicillin (100 U/ml), and streptomycin (100 μg/ml) and plated at a density of 2 × 10^4 cells on glass-bottom dishes. Precultured cortical astrocytes on glass coverslips (13 mm φ) were transferred to the dishes so that astrocytes were faced to neurons. The cultures were maintained at 37°C in a 95% air and 5% CO2 humidified incubator. The culture medium was replaced every 7 days, and the neurons were used at 16 to 18 days in vitro (DIV).
Calcein Red AM (50 nM; AAT Bioquest) was added to the cultured neurons for 30 min at 37°C to visualize the intracellular region. The cells were washed with Hepes-based ACSF [25 mM Hepes (pH 7.4), 140 mM NaCl, 5 mM KCl, 1.3 mM CaCl2, 2 mM MgCl2, and 33 mM glucose], and 100 nM PFQX1(AF488) in Hepes-based ACSF was added to the dish.
For evaluating the concentration dependency of PFQX1(AF488), the cells were treated with 1 nM PFQX1(AF488). Then, PFQX1(AF488) in Hepes-based ACSF was added stepwise to the dish to a final concentration of 3, 10, 30, 100, 300, and 1000 nM. To quantify the concentration dependency after cLTP, the procedure described above was conducted after cLTP stimulation as described in the section “cLTP and quantification of cell-surface AMPARs.” The average intensity of ROIs set on spines was calculated by ZEN blue software after subtracting background fluorescence. The intensity was fitted with KaleidaGraph to calculate the equilibrium constant value using the following equation: a + (b − a)/(1 + (x/c)^d). The equilibrium constant is regarded as the Kd in this study.

Series [1] in a line: Solubility of PFQX(Dye)s in HBS. It counts as physicochemical. The note with it: aqueous buffer; dissolved in HBS. The protocol: aAffinity was evaluated in HEK293T cells expressing GluA2 flip(Q).
S3A. bPFQX(Dye)sweredissolved in HBS.
cAffinity to native AMPARs were evaluated usingprimary cultured hippocampal

For another series, the target named is T2, GluA2 (Mus musculus, UniProt P23819, DEL765-802).
T2 construct: expressed in transfected cells; host or cells: HEK293T
The experiment in a line: Kinetics and reversibility of PFQX1(AF488) binding in HEK293T cells expressing GluA2. The settings on record: 100 nM probe. The protocol:
HEK293T cells were transfected with Halo-tag-GluA2^flip(Q)-3′UTR. The cells were incubated with 500 nM Halo-Tag ligand-Alexa647 [HTL(AF647)] for 15 min at room temperature. AF647 was used as a transfection marker. The cells were washed three times with HBS, and a cloning ring (16 mm φ) was placed on the dish to accelerate the diffusion of the probe solution. After the dish was set on the stage, 100 nM PFQX1(AF488) was added to inside the cloning ring and imaged at specified time points by confocal microscopy.
For evaluating reversibility, 100 nM PFQX1(AF488) in HBS was added to the dish. The cells were observed by confocal microscopy as the first image. Then, the cells were washed three times with HBS and scanned as the wash image. After removal of the buffer, 100 nM PFQX1(AF488) was re-treated, and the cells were scanned as the second image. To quantify the fluorescence intensity of the membrane, the average signal intensity of regions of interest (ROIs) set on the membrane was calculated after subtracting background fluorescence by ZEN blue software.

For a further series, the target named is T3, GluA3 (Y454A/R461G) (Mus musculus, UniProt Q9Z2W9, R461G/Y454A).
T3 construct: expressed in transfected cells; host or cells: HEK293T
In words: Concentration-dependent binding of PFQX1(AF488), confocal live imaging of HEK293T cells expressing GluA3. The note with it: n = 3, read-out: Kd / Affinity of PFQX1(AF488) to GluA3. The protocol:
HEK293T cells were cotransfected with plasmids for AMPAR [5′UTR-GluA1^flip(R)-3′UTR, GluA2^flip(Q)-3′UTR, GluA3^flip(Q) (Y454A/R461G), and GluA4^flip(Q)], kainate receptor [GluK2(Q)], auxiliary subunits, or the control vector and transfection marker (EFGP-F or mCherry-F). Fluorophore-ligand conjugates were diluted in Hepes-buffered saline (HBS) buffer [20 mM Hepes (pH 7.4), 107 mM NaCl, 6 mM KCl, 1.2 mM MgSO4, 2 mM CaCl2, and 11.5 mM glucose] and added to the cells. Confocal live imaging was performed with LSM900 (Carl Zeiss) equipped with a 63×, numerical aperture (NA) = 1.4 oil-immersion objective. Fluorescence images were acquired by excitation at 405, 488, 561, or 640 nm derived from diode lasers.
For evaluating the concentration dependency of fluorophore-ligand conjugates, 0.1 nM probe in HBS was added to the dish. Then, probes in HBS were added stepwise to the dish to a final concentration of 0.3, 1, 3, 10, 30, 100, 300, 1000, and 3000 nM. Cell surface fluorescence intensity was quantified from the line scans of transfection marker positive cells and calculated with subtraction of background by ZEN blue software (Carl Zeiss). The membrane intensity was fitted with KaleidaGraph (Synergy software) to calculate the equilibrium constant value using the following equation: a + (b − a)/(1 + (x/c)^d). The equilibrium constant is regarded as the Kd in this study.

The test system of a further series is AMPARs. The experiment in a line: Kinetics and reversibility of PFQX1(AF488) binding in cultured hippocampal neurons. More on the design: species or system mouse. The settings on record: 100 nM probe. The protocol: A cloning ring (16 mm φ) was placed on the dish to accelerate the diffusion of the probe solution. After the dish was set on the stage, the cells were treated with 100 nM PFQX1(AF488) and imaged at specified time points by confocal microscopy.
For evaluating reversibility, stained cells were observed by confocal microscopy as the first image. Then, the cells were washed three times with Hepes-based ACSF and scanned as the wash image. After removal of the buffer, 100 nM PFQX1(AF488) was re-treated, and the cells were scanned as the second image. To quantify the fluorescence intensity of spines, the average signal intensity of ROIs set on spines was calculated by ZEN blue software after subtracting background fluorescence.

Like-named read-outs stand apart in the source and are kept apart here.

T2 sequence (P23819 with tags, fused parts or gaps isoform P23819-4 DEL765-802): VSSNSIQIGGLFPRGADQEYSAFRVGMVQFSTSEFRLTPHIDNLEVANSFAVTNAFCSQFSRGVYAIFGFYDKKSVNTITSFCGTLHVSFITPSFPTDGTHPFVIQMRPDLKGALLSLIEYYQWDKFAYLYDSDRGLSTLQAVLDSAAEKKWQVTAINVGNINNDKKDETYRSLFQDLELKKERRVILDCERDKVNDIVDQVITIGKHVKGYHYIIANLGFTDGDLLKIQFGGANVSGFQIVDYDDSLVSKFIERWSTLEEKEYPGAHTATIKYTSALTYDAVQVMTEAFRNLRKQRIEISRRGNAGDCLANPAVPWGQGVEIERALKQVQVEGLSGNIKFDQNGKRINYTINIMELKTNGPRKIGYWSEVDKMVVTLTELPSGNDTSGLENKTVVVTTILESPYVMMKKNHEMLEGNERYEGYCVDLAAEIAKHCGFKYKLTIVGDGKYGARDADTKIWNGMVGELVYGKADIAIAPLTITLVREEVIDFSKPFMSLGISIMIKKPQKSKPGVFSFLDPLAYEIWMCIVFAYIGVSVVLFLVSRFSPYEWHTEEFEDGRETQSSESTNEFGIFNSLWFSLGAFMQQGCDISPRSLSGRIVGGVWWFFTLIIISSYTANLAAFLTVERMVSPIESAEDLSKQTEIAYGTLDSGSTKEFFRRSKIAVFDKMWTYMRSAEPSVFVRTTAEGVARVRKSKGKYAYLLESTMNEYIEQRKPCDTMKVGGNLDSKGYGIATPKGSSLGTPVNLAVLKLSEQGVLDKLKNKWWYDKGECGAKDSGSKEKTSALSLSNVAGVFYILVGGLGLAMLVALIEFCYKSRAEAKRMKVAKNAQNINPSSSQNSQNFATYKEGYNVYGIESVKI
T1 sequence (P23819 with tags, fused parts or gaps isoform P23819-4 DEL765-802): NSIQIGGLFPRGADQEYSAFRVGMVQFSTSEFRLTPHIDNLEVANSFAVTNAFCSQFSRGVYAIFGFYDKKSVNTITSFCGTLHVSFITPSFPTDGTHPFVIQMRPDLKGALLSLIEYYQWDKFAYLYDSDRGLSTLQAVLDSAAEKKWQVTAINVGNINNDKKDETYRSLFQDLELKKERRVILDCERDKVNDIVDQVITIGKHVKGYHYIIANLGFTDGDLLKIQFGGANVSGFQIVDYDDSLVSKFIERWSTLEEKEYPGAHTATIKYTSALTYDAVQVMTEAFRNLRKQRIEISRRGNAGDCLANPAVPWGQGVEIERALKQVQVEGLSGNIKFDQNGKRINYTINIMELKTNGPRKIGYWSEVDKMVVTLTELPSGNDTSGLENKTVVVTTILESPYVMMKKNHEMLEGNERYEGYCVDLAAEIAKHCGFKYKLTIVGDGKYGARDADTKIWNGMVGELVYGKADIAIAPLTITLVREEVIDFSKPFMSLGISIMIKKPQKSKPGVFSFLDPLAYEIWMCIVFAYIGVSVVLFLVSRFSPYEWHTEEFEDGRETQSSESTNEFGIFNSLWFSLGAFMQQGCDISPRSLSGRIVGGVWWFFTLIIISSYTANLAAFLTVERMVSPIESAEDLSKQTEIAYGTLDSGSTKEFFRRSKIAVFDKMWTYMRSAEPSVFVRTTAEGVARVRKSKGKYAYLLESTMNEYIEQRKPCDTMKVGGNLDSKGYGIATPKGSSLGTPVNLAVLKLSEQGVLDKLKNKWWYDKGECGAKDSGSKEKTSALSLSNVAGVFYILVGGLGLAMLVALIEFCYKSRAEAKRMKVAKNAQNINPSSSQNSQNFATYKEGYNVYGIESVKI
T3 sequence (Q9Z2W9 23-888 Y454A/R461G): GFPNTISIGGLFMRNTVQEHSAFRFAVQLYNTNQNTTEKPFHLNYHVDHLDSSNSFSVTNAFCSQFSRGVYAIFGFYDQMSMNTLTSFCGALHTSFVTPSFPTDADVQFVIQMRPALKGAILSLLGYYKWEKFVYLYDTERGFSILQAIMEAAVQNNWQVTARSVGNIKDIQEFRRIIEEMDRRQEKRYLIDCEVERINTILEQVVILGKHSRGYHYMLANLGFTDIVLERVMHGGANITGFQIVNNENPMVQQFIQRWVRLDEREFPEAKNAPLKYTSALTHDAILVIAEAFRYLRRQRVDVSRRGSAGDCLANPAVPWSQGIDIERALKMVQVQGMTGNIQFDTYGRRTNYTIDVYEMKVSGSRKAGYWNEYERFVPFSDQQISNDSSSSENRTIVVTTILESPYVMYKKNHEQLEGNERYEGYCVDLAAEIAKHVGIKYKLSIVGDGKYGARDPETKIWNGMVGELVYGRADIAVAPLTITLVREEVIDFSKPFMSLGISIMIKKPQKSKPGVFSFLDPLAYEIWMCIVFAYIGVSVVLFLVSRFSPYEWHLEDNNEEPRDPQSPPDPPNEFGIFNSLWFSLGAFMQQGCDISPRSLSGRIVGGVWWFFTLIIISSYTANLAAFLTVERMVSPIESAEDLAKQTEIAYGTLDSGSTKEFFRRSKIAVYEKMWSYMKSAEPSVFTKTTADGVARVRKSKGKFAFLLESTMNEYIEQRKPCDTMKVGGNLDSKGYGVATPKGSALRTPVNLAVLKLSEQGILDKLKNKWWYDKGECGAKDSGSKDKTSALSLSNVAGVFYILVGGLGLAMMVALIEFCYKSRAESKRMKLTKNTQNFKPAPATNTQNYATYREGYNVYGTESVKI

Take `N=c1ccc2c(-c3ccc(C(=O)NCc4ccn(-c5cc6c(cc5C(F)(F)F)[nH]c(=O)c(=O)n6CC(=O)O)c4)cc3C(=O)O)c3ccc(N)c(S(=O)(=O)O)c3oc-2c1S(=O)(=O)O` [PFQX1(AF488)]: the “cell-surface fluorescence / affinity to AMPARs (in words)” value at GluA2flip(Q) (HEK293T cells expressing GluA2) was “high affinity”. The Kd on GluA2flip(Q) (HEK293T cells expressing GluA2flip(Q), cell-surface fluorescence, mean ± SEM, n = 3, read-out: dissociation constant (Kd) / Affinity to GluA2) was found to be 37.2 ± 9.8 nM; on native AMPARs (cultured hippocampal neurons after cLTP stimulation, read-out: Kd value after cLTP), 72.4 ± 17.4 nM; at native AMPARs (primary cultured hippocampal neurons, spine fluorescence, read-out: Kd / Affinity to native AMPARs), 97.5 ± 9.9 nM; on GluA3 (Y454A/R461G), 30.6 ± 7 nM. In addition, the “fraction of AMPARs bound / suppressed by the probe” value with native AMPARs (10 nM probe, from Fig. 4C) is reported as “less than 10%”. Also, the solubility in series [1] was more than 1470 µM. Further, the “reversibility of binding (medium exchange)” value on GluA2 is recorded as “fluorescence from the cell surface was lost after the medium exchange”; with AMPARs, “easily removed by medium exchange”. Moreover, the “time to saturation of cell-surface fluorescence after probe addition” value on GluA2 was not above 20 s. Moreover, the “time to saturation of fluorescent signals after probe addition” value in the series with AMPARs is on record as 10 s.
